Measurements as given in patent US12612409B2, “Pyrrolopyrimidines as CFTR potentiators” (Cystic Fibrosis Foundation, priority 2016, dated 2026).
pEC50: −log10 of the molar value. One block for each molecule: values may come before it.

What was measured:
[1] = biological target: T1, CFTR in F508del/F508del primary CF hBE cells (Homo sapiens, UniProt P13569, DEL508-508); assay: Ussing chamber electrophysiology assay of CFTR potentiation in F508del/F508del CF bronchial epithelial cells (27° C.); format: cell-based
T1 construct: Primary cystic fibrosis human bronchial epithelial (CF hBE) cells were expanded and cultured; endogenous in cells; host or cells: primary CF human bronchial epithelial cells, genotype F508del/F508del
Outline: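 Short-circuit current was recorded under zero-voltage clamp across primary CF bronchial epithelia cultured >30 days at air/liquid interface, bathed apically and basolaterally in HEPES-buffered saline. Sequential additions: amiloride (30 uM), forskolin (10 uM), compound at 4 increasing levels, CFTRinh-172 (20 uM). Responses normalised between DMSO (0%) and maximal positive-control potentiator (100%).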

[2] = biological target: T2, recombinant F508del V470 CFTR in Fischer rat thyroid (FRT) cells (Homo sapiens, UniProt P13569, DEL508-508); assay: FRT ion flux assay of F508del CFTR potentiation; format: cell-based; settings: FRT cells expressing F508del V470 CFTR, forskolin 20 uM, 27° C. pre-incubation
T2 construct: expressed in transfected cells
Outline: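 Potentiation read as YFP quench ~21 s after iodide buffer addition, as second/initial fluorescence ratio normalised between DMSO (0%) and reference potentiator (100%).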

T1 sequence (P13569 with tags, fused parts or gaps DEL508-508): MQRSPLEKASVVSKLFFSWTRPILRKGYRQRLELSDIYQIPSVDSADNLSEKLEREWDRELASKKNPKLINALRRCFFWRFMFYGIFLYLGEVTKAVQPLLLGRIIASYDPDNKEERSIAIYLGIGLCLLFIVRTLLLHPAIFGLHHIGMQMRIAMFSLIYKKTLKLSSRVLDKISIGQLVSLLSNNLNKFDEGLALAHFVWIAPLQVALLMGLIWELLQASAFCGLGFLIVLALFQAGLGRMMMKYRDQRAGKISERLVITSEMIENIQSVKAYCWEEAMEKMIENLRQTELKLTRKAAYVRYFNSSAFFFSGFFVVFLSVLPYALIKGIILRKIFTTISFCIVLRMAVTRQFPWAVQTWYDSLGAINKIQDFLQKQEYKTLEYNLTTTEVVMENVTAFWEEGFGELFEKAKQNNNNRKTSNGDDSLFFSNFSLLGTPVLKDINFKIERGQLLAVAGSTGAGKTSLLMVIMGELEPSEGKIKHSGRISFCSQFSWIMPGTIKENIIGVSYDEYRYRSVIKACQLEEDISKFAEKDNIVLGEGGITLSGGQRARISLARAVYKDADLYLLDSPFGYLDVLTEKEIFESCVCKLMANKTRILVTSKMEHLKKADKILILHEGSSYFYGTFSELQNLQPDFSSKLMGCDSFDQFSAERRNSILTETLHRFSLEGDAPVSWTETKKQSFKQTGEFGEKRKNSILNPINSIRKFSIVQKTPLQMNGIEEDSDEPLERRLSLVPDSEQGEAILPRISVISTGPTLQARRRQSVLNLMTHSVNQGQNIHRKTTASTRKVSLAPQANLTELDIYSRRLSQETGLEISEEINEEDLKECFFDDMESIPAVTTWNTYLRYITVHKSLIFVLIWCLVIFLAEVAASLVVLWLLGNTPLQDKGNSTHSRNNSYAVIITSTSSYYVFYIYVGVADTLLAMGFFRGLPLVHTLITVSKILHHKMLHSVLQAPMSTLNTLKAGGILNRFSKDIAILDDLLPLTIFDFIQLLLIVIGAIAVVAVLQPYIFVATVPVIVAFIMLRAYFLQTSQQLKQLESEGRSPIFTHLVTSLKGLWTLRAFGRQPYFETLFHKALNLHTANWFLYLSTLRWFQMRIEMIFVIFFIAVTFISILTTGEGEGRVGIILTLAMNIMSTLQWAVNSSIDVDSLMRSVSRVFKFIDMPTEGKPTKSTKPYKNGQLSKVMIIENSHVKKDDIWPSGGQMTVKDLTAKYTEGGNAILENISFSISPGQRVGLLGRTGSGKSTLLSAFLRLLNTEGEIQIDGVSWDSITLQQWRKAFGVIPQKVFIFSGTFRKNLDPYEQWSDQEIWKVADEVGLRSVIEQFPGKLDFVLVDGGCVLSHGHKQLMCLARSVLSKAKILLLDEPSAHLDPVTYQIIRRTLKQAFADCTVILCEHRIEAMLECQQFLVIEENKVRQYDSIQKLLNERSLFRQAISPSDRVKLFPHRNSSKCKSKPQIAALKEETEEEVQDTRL
T2 sequence (P13569 with tags, fused parts or gaps DEL508-508): as above

SMILES: COc1ncccc1-c1cn(C(C)c2cn(-c3ccccc3F)nn2)c2ncnc(N)c12 (single isomer, unassigned; enantiomer 2) [Example 114, (+) 7-{1-[1-(2-Fluorophenyl)-1H-1,2,3-triazol-4-yl]ethyl}-5-(2-methoxypyridin-3-yl)-7H-pyrrolo[2,3-d]pyrimidin-4-amine, enantiomer 2]
pEC50 [1]: 7.12
pEC50 [2]: 7.44

SMILES: CC(c1cn(-c2ccccc2F)nn1)n1cc(-c2ccc(C#N)c(F)c2)c2c(N)ncnc21 (single isomer, unassigned; enantiomer 2) [Example 116, 4-(4-Amino-7-{1-[1-(2-fluorophenyl)-1H-1,2,3-triazol-4-yl]ethyl}-7H-pyrrolo[2,3-d]pyrimidin-5-yl)-2-fluorobenzonitrile, enantiomer 2]
pEC50 [1]: 7.59
pEC50 [2]: 7.44

SMILES: CC(c1cn(-c2ccccc2F)nn1)n1cc(-c2ccc(OC3CC3)cc2)c2c(N)ncnc21 (single isomer, unassigned; enantiomer 2) [Example 118, (−) 5-[4-(Cyclopropyloxy)phenyl]-7-{1-[1-(2-fluorophenyl)-1H-1,2,3-triazol-4-yl]ethyl}-7H-pyrrolo[2,3-d]pyrimidin-4-amine, enantiomer 2]
pEC50 [1]: 6.79
pEC50 [2]: 6.42

SMILES: CC(c1cn(-c2ccccc2F)nn1)n1cc(-c2ccc(OC3CC3)nc2)c2c(N)ncnc21 (single isomer, unassigned; enantiomer 2) [Example 120, (+) 5-[6-(Cyclopropyloxy)pyridin-3-yl]-7-{1-[1-(2-fluorophenyl)-1H-1,2,3-triazol-4-yl]ethyl}-7H-pyrrolo[2,3-d]pyrimidin-4-amine, enantiomer 2]
pEC50 [1]: 8.26
pEC50 [2]: 7.48

SMILES: CCC(c1cn(-c2ccccc2)nn1)n1cc(-c2ccc(OC)nc2)c2c(N)ncnc21 (single isomer, unassigned; enantiomer 2) [Example 126, 5-(6-Methoxypyridin-3-yl)-7-[1-(1-phenyl-1H-1,2,3-triazol-4-yl)propyl]-7H-pyrrolo[2,3-d]pyrimidin-4-amine, enantiomer 2]
pEC50 [1]: 7.92
pEC50 [2]: 7.67

SMILES: CCC(c1cn(-c2ccccc2)nn1)n1cc(-c2cncnc2OC)c2c(N)ncnc21 (single isomer, unassigned; enantiomer 2) [Example 128, (+) 5-(4-Methoxypyrimidin-5-yl)-7-[1-(1-phenyl-1H-1,2,3-tnazol-4-yl)propyl]-7H-pyrrolo[2,3-d]pyrimidin-4-amine, enantiomer 2]
pEC50 [1]: 7.37
pEC50 [2]: 7.72

SMILES: CCC(c1cn(-c2ccccc2)nn1)n1cc(-c2cnc(C(F)(F)F)nc2)c2c(N)ncnc21 (single isomer, unassigned; enantiomer 2) [Example 130, 7-[1-(1-Phenyl-1H-1,2,3-triazol-4-yl)propyl]-5-[2-(trifluoromethyl)pyrimidin-5-yl]-7H-pyrrolo[2,3-d]pyrimidin-4-amine, enantiomer 2]
pEC50 [1]: 6.73
pEC50 [2]: 6.63

SMILES: CCC(c1cn(-c2ccccc2F)nn1)n1cc(-c2ccc(Cl)cc2)c2c(N)ncnc21 (single isomer, unassigned; enantiomer 2) [Example 132, (+) 5-(4-Chlorophenyl)-7-{1-[1-(2-fluorophenyl)-1H-1,2,3-triazol-4-yl]propyl}-7H-pyrrolo[2,3-d]pyrimidin-4-amine, enantiomer 2]
pEC50 [1]: 7.95
pEC50 [2]: 7.42

SMILES: CCC(c1cn(-c2ccccc2F)nn1)n1cc(-c2nccnc2OC)c2c(N)ncnc21 (single isomer, unassigned; enantiomer 2) [Example 136, (+) 7-{1-[1-(2-Fluorophenyl)-1H-1,2,3-triazol-4-yl]propyl}-5-(3-methoxypyrazin-2-yl)-7H-pyrrolo[2,3-d]pyrimidin-4-amine, enantiomer 2]
pEC50 [1]: 8.46
pEC50 [2]: 7.81

SMILES: CCC(c1cn(-c2ccccc2F)nn1)n1cc(-c2cnc(C(F)(F)F)nc2)c2c(N)ncnc21 (single isomer, unassigned; enantiomer 2) [Example 138, 7-{1-[1-(2-Fluorophenyl)-1H-1,2,3-triazol-4-yl]propyl}-5-[2-(trifluoromethyl)pyrimidin-5-yl]-7H-pyrrolo[2,3-d]pyrimidin-4-amine, enantiomer 2]
pEC50 [1]: 6.58
pEC50 [2]: 6.58

SMILES: CCC(c1cn(-c2ccccc2F)nn1)n1cc(-c2cc(F)cnc2OC)c2c(N)ncnc21 (single isomer, unassigned; enantiomer 2) [Example 140, (−) 5-(5-Fluoro-2-methoxypyridin-3-yl)-7-{1-[1-(2-fluorophenyl)-1H-1,2,3-triazol-4-yl]propyl}-7H-pyrrolo[2,3-d]pyrimidin-4-amine, enantiomer 2]
pEC50 [1]: 7.20
pEC50 [2]: 6.77

SMILES: CCC(c1cn(-c2ccccc2F)nn1)n1cc(-c2ccc(OC(F)F)nc2)c2c(N)ncnc21 (single isomer, unassigned; enantiomer 2) [Example 142, (+) 5-[6-(Difluoromethoxy)pyridin-3-yl]-7-{1-[1-(2-fluorophenyl)-1H-1,2,3-triazol-4-yl]propyl}-7H-pyrrolo[2,3-d]pyrimidin-4-amine, enantiomer 2]
pEC50 [1]: 8.34
pEC50 [2]: 8.30

Second part, the molecule after the results:

pEC50 [1]: 7.47
pEC50 [2]: 7.30
SMILES: CCC(c1cn(-c2ccc(F)c(F)c2)nn1)n1c(C#N)c(-c2cnc(C(F)(F)F)nc2)c2c(N)ncnc21 (single isomer, unassigned; enantiomer 1) [Example 322, 4-Amino-7-{1-[1-(3,4-difluorophenyl)-1H-1,2,3-triazol-4-yl]propyl}-5-[2-(trifluoromethyl)pyrimidin-5-yl]-7H-pyrrolo[2,3-d]pyrimidine-6-carbonitrile, enantiomer 1]

pEC50 [1]: 7.59
pEC50 [2]: 7.91
SMILES: CCC(c1cn(-c2ccccc2F)nn1)n1cc(-c2cc[nH]n2)c2c(N)ncnc21 (single isomer, unassigned; enantiomer 2) [Example 148, 7-{1-[1-(2-Fluorophenyl)-1H-1,2,3-triazol-4-yl]propyl}-5-(1H-pyrazol-3-yl)-7H-pyrrolo[2,3-d]pyrimidin-4-amine, enantiomer 2]

pEC50 [1]: 6.03
pEC50 [2]: 6.53
SMILES: CCC(c1cn(-c2ccc(F)cc2)nn1)n1cc(-c2cncnc2OC)c2c(N)ncnc21 (single isomer, unassigned; enantiomer 2) [Example 150, (−) 7-{1-[1-(4-Fluorophenyl)-1H-1,2,3-triazol-4yl]propyl}-5-(4-methoxypyrimidin-5-yl)-7H-pyrrolo[2,3-d]pyrimidin-4-amine, enantiomer 2]

pEC50 [1]: 6.35
pEC50 [2]: 6.74
SMILES: CCC(c1cn(-c2ccc(F)c(F)c2)nn1)n1cc(-c2cncnc2OC)c2c(N)ncnc21 (single isomer, unassigned; enantiomer 2) [Example 152, (−) 7-{1-[1-(3,4-Difluorophenyl)-1H-1,2,3-triazol-4-yl]propyl}-5-(4-methoxypyrimidin-5-yl)-7H-pyrrolo[2,3-d]pyrimidin-4-amine, enantiomer 2]

pEC50 [1]: 6.49
pEC50 [2]: 6.20
SMILES: CCC(c1cn(-c2ccc(F)c(F)c2)nn1)n1cc(-c2cnc(C(F)(F)F)nc2)c2c(N)ncnc21 (single isomer, unassigned; enantiomer 2) [Example 154, 7-{1-[1-(3,4-Difluorophenyl)-1H-1,2,3-triazol-4-yl]propyl}-5-[2-(trifluoromethyl)pyrimidin-5-yl]-7H-pyrrolo[2,3-d]pyrimidin-4-amine, enantiomer 2]

pEC50 [1]: 7.24
pEC50 [2]: 6.64
SMILES: CCC(c1cn(-c2ccc(F)c(F)c2)nn1)n1cc(-c2cc(F)cnc2OC)c2c(N)ncnc21 (single isomer, unassigned; enantiomer 2) [Example 156, 7-{1-[1-(3,4-Difluorophenyl)-1H-1,2,3-triazol-4-yl]propyl}-5-(5-fluoro-2-methoxypyridin-3-yl)-7H-pyrrolo[2,3-d]pyrimidin-4-amine, enantiomer 2]

pEC50 [1]: 7.71
pEC50 [2]: 6.95
SMILES: CCC(c1cn(-c2ccc(F)c(F)c2)nn1)n1cc(-c2cnc(OC)c(F)c2)c2c(N)ncnc21 (single isomer, unassigned; enantiomer 2) [Example 158, 7-{1-[1-(3,4-Difluorophenyl)-1H-1,2,3-triazol-4-yl]propyl}-5-(5-fluoro-6-methoxypyridin-3-yl)-7H-pyrrolo[2,3-d]pyrimidin-4-amine, enantiomer 2]

pEC50 [1]: 6.23
pEC50 [2]: 6.35
SMILES: CCC(c1cn(-c2ccc(F)cc2F)nn1)n1cc(-c2cncnc2OC)c2c(N)ncnc21 (single isomer, unassigned; enantiomer 2) [Example 160, (−) 7-{1-[1-(2,4-Difluorophenyl)-1H-1,2,3-triazol-4-yl]propyl}-5-(4-methoxypyrimidin-5-yl)-7H-pyrrolo[2,3-d]pyrimidin-4-amine, enantiomer 2]

pEC50 [1]: 8.34
pEC50 [2]: 8.09
SMILES: CCC(c1cn(-c2ccc(F)cc2F)nn1)n1cc(-c2cc(F)cnc2OC)c2c(N)ncnc21 (single isomer, unassigned; enantiomer 2) [Example 164, 7-{1-[1-(2,4-Difluorophenyl)-1H-1,2,3-triazol-4-yl]propyl}-5-(5-fluoro-2-methoxypyridin-3-yl)-7H-pyrrolo[2,3-d]pyrimidin-4-amine, enantiomer 2]

pEC50 [1]: 8.05
pEC50 [2]: 7.61
SMILES: CCC(c1cn(-c2ccc(F)cc2F)nn1)n1cc(-c2cnc(OC)c(F)c2)c2c(N)ncnc21 (single isomer, unassigned; enantiomer 2) [Example 166, 7-{1-[1-(2,4-Difluorophenyl)-1H-1,2,3-triazol-4-yl]propyl}-5-(5-fluoro-6-methoxypyridin-3-yl)-7H-pyrrolo[2,3-d]pyrimidin-4-amine, enantiomer 2]
